Results reported in ChEMBL document CHEMBL6121052, “Design of ROS-Triggered Sesquiterpene Lactone SC Prodrugs as TrxR1 Covalent Inhibitors for the Treatment of Non-Small Cell Lung Cancer” (J Med Chem, 2025).
Activity calls are given as the source filed them. The calls are words filed in the database; no cut-off is given here.

What was measured:
A549 [1] = test: Induction of morphological changes in human A549 cells assessed as increase in number of contracted shapes upto 10 uM; format: functional, cell-based
NSCLC = test: Downregulation of TrxR1 expression in human NSCLC cells by IHC analysis; format: functional, cell-based
NCI-H1299 [2] = test: Antitumor activity against human NCI-H1299 cells xenografted in BALB/c mouse assessed as decrease in GPX4 expression at 5 to 10 mg/kg, po administered every 2 days for 2 weeks by IHC analysis; format: functional, organism-based; conditions: dose 5-10 mg/kg
A549 [3] = test: Antiproliferative activity against human A549 cells assessed as decrease in EdU positive cells at 4 uM measured after 14 days by Hoechst 33342 staining based fluorescence microscopic analysis; format: functional, cell-based; conditions: time 14.0 day
NCI-H1299 [4] = test: Induction of apoptosis in human NCI-H1299 cells assessed as necrotic cells at 5 uM measured after 48 hrs by Annexin V/FITC staining based flow cytometric analysis (reference value: 0.62%); format: functional
[5] = Tmax in male Sprague-Dawley rat at 10 mg/kg, iv measured upto 24 hrs by LC-MS/MS analysis; format: ADME, organism-based; conditions: in vivo
NCI-H1299 [6] = test: Antiproliferative activity against human NCI-H1299 cells assessed as decrease in EdU positive cells at 4 uM measured after 14 days by Hoechst 33342 staining based fluorescence microscopic analysis; format: functional, cell-based; conditions: time 14.0 day
Mitochondrial membrane = test: Induction of mitochondrial membrane potential loss in human A549 cells assessed as increase in green fluorescence upto 10 uM incubated for 24 hrs by JC-1 staining based confocal microscopy analysis; format: cell membranes
NCI-H1299 [7] = test: Induction of ferroptosis in human NCI-H1299 cells assessed as effect on SLC7A11 protein expression at 10 uM incubated for 24 hrs by Western blotting analysis; format: functional, cell-based
NCI-H1299 [8] = test: Induction of apoptosis in human NCI-H1299 cells assessed as viable cells at 2.5 uM measured after 48 hrs by Annexin V/FITC staining based flow cytometric analysis (reference value: 96.3%); format: functional; conditions: read-out: Activity
A549 [9] = test: Induction of apoptosis in human A549 cells assessed as late apoptotic cells at 10 uM measured after 48 hrs by Annexin V/FITC staining based flow cytometric analysis (reference value: 5.37%); format: functional
[10] = MRT (0 to t) in male Sprague-Dawley rat at 10 mg/kg, iv measured upto 24 hrs by LC-MS/MS analysis; format: ADME, organism-based; conditions: in vivo
[11] = Clearance in male Sprague-Dawley rat at 10 mg/kg, iv measured upto 24 hrs by LC-MS/MS analysis; format: ADME, organism-based; conditions: in vivo

Tmax [5]: 1.98 min | Activity (Mitochondrial membrane): Active | MRT last at 24 h [10]: 4.15 h | clearance [11]: 162 mL/min/kg
Compound: CCCNC(=O)O[C@@H]1/C=C(\C)C[C@H]2C=C(C[C@@H]3OC(=O)[C@H](CSC(=S)N(C)C)[C@H]31)C(=O)O2
Activity (A549 [1]): Active | Activity (NSCLC): Active | Activity (NCI-H1299 [2]): Active | Activity (A549 [3]): Active | Activity (NCI-H1299 [4]): 1.45% | Activity (NCI-H1299 [6]): Active | Activity (NCI-H1299 [7]): Active | viability at 2.5 µM (NCI-H1299 [8]): 89.7% | Activity (A549 [9]): 24.3%
